From US9937178B2, “Methods of identifying and using MDM2 inhibitors” (DUKE UNIVERSITY, priority 2011, dated 2018) come the findings set out here.

The assay relates to Mcl-1. Briefly: Mcl-1 ubiquitylation (FLAG-Mcl-1 / HA-Ub immunoprecipitation). Particulars: 1 μM lapatinib, 24 hours. The assay is classed as cell-based. As to the method:
FIG. 3 is a set of photographs showing that Mcl-1 is stabilized in lapatinib-resistant cells. […] FIG. 3B is a set of immunoblots showing the levels of HER2 and phospho-HER2 in untreated cells and cells treated with lapatinib. Cells were treated with or without lapatinib (1 μM) for 24 hours in the presence of the caspase inhibitor z-VAD (50 μM). The cells were harvested and cell lysates were immunoblotted using antibodies against phospho-HER2 (Y877) and total HER2. FIG. 3C is an immunoblot for phospho-AKT (T308) and total AKT. BT474 and rBT474 cells were treated with 1 μM lapatinib in the presence of 50 μM z-VAD. At the indicated time points, the cells were harvested and immunoblotted. FIG. 3D is an immunoblot for phospho-Erl1/2(T202/Y204) and total Erk1/2. BT474 and rBT474 cells were treated with 1 μM lapatinib in the presence of 50 μM z-VAD. At the indicated time points, the cells were harvested and immunoblotted. […] FIG. 3F is an autoradiograph showing the ^35[S] radioactivity in lysates containing ^35[S]-Mcl-1 at the indicated time points. ^35[S]-labeled Mcl-1 protein was incubated in cell-free lysates prepared from BT474 and rBT474 cells (top) or SKBR3 and rSKBR3 cells (bottom). […] FLAG-Mcl-1 was retrieved by immunoprecipitation using anti-flag agarose, and Mcl-1 ubiquitylation was analyzed by immunoblotting for HA (*non-specific band, **IgG heavy chain). […]

With `CS(=O)(=O)CCNCc1ccc(-c2ccc3ncnc(Nc4ccc(OCc5cccc(F)c5)c(Cl)c4)c3c2)o1` [lapatinib], the Mcl-1 ubiquitylation entry is reported as “enhanced” (SKBR3 cells) and “diminished” (rSKBR3 cells).
